From patent publication US12595254B2, “Crystal form of Resmetirom, preparation method therefor, and use thereof” (CRYSTAL PHARMACEUTICAL (SUZHOU) CO., LTD., priority 2020, dated 2026)
In brackets after ≈: the same amount, converted by molar mass. Entries after “also recorded” stand apart in the source; their conditions may differ. Like-named read-outs stand apart in the source and are kept apart here.

Key:
[1] = Grinding stability; format: physicochemical; conditions: ground manually in a mortar
Procedure: Solid sample of Form CSVI was ground manually for 5 minutes in a mortar.

[2] = Flowability (compressibility index); format: physicochemical
Procedure: Compressibility index is usually utilized to evaluate the flowability of powder or granules during the drug product process. Compressibility index test method is as follows: a certain amount of powder was added into a measuring cylinder and bulk volume was recorded. Then the powder was tapped to make it in the tightest state and the tapped volume was recorded.
The bulk density (ρ0), tapped density (ρf) were calculated and compressibility index was calculated according to c=(ρf−π0)/ρf.

[3] = Adhesiveness (amount sticking to the punch); format: physicochemical; conditions: 30 mg, Φ8 mm tooling, 10 KN held for 30 s
Procedure: 30 mg of Form CSVI and Form I in the prior art were weighed and then added into the dies of Φ8 mm round tooling, compressed at 10 KN and held for 30 s. The punch was weighed and amount of material sticking to the punch was calculated. The maximum amount and average amount of material sticking to the punch during the compression were recorded.

[4] = Compressibility (tensile strength of compressed tablet); format: physicochemical; conditions: for Diameter / Hardness / Thickness / Tensile strength: 80 mg compressed at 10 KN; for Diameter / Hardness / Thickness: after 24 h at room temperature; for Tensile strength: T=2H/πDL
Procedure: ENERPAC manual tablet press was used for compression. 80 mg of Form CSVI and Form I in the prior art were weighed and added into the dies of a 16 mm round tooling, compressed at 10 KN manually, then stored at room temperature for 24 h until complete elastic recovery, diameter (D) and thickness (L) were tested with caliper. Hardness (H) was tested with an intelligent tablet hardness tester. Tensile strength of the powder was calculated with the following formula: T=2H/πDL. Under a certain force, the greater the tensile strength, the better the compressibility.

[5] = Hygroscopicity by dynamic vapor sorption (DVS); format: physicochemical; conditions: for Weight gain: DVS
Procedure: Dynamic Vapor Sorption (DVS) was measured via an SMS (Surface Measurement Systems Ltd.) intrinsic DVS instrument. The instrument control software is DVS-Intrinsic control software. Typical Parameters for DVS test are as follows: • Temperature: 25° C. • Gas and flow rate: N2, 200 mL/min • RH range: 0% RH to 95% RH
Dynamic vapor sorption (DVS) analyzer was applied to evaluate the hygroscopicity of Form CSVI and Form I in the prior art with an appropriate amount. The weight gains at each relative humidity were recorded in a cycle of 0-95%-0 RH.

[6] = Solubility in simulated gastric fluid (SGF), HPLC; format: physicochemical
Procedure: When solubility test is used to predict the in vivo performance of a drug, it is critical to simulate in vivo conditions as closely as possible. Simulated gastric fluid (SGF) can be used to simulate the condition in vivo and predict the effects of eating, thus solubility in this medium is closer to that in vivo. 15 mg of Form CSVI was suspended into 2.0 mL of SGF. After equilibrated for 1 h at 37° C., concentrations of the saturated solutions were measured by HPLC.

[7] = Stability of crystalline form in drug product process; format: physicochemical; conditions: XRPD, tablet per Tables 11 and 12
Source text: The formulation and preparation process of Form CSVI are shown in Table 11 and Table 12, respectively.

[8] = Pressure stability (tableting, XRPD); format: physicochemical
Procedure: ENERPAC manual tablet press was used for compression. 20 mg of Form CSVI were compressed into tablets under different pressures with the dies of a 16 mm round tooling. Crystalline form before and after tableting were checked by XRPD.

[9] = Physicochemical stability of drug substance on storage (XRPD, HPLC); conditions: for Chemical purity during storage / Time for which crystalline state doesn't change / kept stable: open and sealed package
Procedure: An appropriate amount of Form CSVI were stored under different conditions of 25° C./60% RH and 40° C./75% RH. Crystalline form and chemical purity were checked by XRPD and HPLC, respectively.

CC(C)c1cc(Oc2c(Cl)cc(-n3nc(C#N)c(=O)[nH]c3=O)cc2Cl)n[nH]c1=O [Form I in the prior art, 2-(3,5-dichloro-4-((5-isopropyl-6-oxo-1,6-dihydropyridazin-3-yl)oxy)phenyl)-3,5-dioxo-2,3,4,5-tetrahydro-1,2,4-triazine-6-carbonitrile, reference compound]
Grinding stability (in words) ([1]; listed as crystalline form I): most of the crystalline form I transform to amorphous after grinding
Flowability ([2]; class by compressibility index, ICH Q4B Annex 13): very poor
Average amount sticking to the punch [3]: 0.25 mg
Maximum amount sticking to the punch [3]: 0.30 mg
Diameter [4]: 6.06 mm
Hardness [4]: 7.4 N
Thickness [4]: 2.12 mm
Tensile strength [4]: 0.37 MPa
Compressibility (in words) ([4]; listed as crystalline form I): poor compressibility
Weight gain of Form I relative to Form CSVI ([5]; 25° C./80% RH): about 2 times
Weight gain ([5]; 25° C./80% RH): 0.13%
Solubility (in words) ([6]; inventors' evaluation of repeated Form I): low solubility

CC(C)c1cc(Oc2c(Cl)cc(-n3nc(C#N)c(=O)[nH]c3=O)cc2Cl)n[nH]c1=O [Form CSVI, 2-(3,5-dichloro-4-((5-isopropyl-6-oxo-1,6-dihydropyridazin-3-yl)oxy)phenyl)-3,5-dioxo-2,3,4,5-tetrahydro-1,2,4-triazine-6-carbonitrile]
Grinding stability (in words) [1]: remained stable; also recorded: doesn't change after grinding
Flowability compared with Form I in the prior art [2]: superior to that of Form I in the prior art
Crystalline form before and after the formulation process [7]: remained stable
Average amount sticking to the punch [3]: 0.05 mg
Maximum amount sticking to the punch [3]: 0.10 mg
Stability under different pressures (in words) ([8]; 3, 7, 14 kN): good stability under different pressures
Solid form after tableting ([8]; Pressure 3 kN): Form CSVI
Solid form after tableting ([8]; Pressure 7 kN): Form CSVI
Solid form after tableting ([8]; Pressure 14 kN): Form CSVI
Compressibility (in words) [4]: better compressibility
Diameter [4]: 6.06 mm
Hardness [4]: 13.4 N
Thickness [4]: 2.05 mm
Tensile strength [4]: 0.69 MPa
Weight gain ([5]; 25° C./80% RH): 0.07%
Crystal form after DVS test ([5]; XRPD before and after DVS): does not change
Hygroscopicity (in words) ([5]; from weight gain at 25° C./80% RH): non or almost non hygroscopic
Purity ([9]; 25° C./60% RH Open, 6 months): 99.73%
Solid Form ([9]; 25° C./60% RH Open, 6 months): Form CSVI
Purity ([9]; 25° C./60% RH Sealed, 6 months): 99.74%
Solid Form ([9]; 25° C./60% RH Sealed, 6 months): Form CSVI
Chemical purity during storage ([9]; 25° C./60% RH): above 99.7%
Time for which crystalline state doesn't change / kept stable ([9]; 25° C./60% RH): at least 6 months
Purity ([9]; 40° C./75% RH Open, 6 months): 99.73%
Solid Form ([9]; 40° C./75% RH Open, 6 months): Form CSVI
Purity ([9]; 40° C./75% RH Sealed, 6 months): 99.73%
Solid Form ([9]; 40° C./75% RH Sealed, 6 months): Form CSVI
Chemical purity during storage ([9]; 40° C./75% RH): above 99.7%
Time for which crystalline state doesn't change / kept stable ([9]; 40° C./75% RH): at least 6 months
Purity ([9]; Initial): 99.73%
Solid Form ([9]; Initial): Form CSVI
Solubility of Form CSVI relative to Form I in the prior art ([6]; SGF, 1 h): about 2 times
solubility at 1 h ([6]; simulated gastric fluid (SGF), simulated gastric fluid, thermodynamic from solid, SGF, equilibrated for 1 h at 37° C.): 2.1 µg/mL (≈ 4.83 µM)

CC(C)c1cc(Oc2c(Cl)cc(-n3nc(C#N)c(=O)[nH]c3=O)cc2Cl)n[nH]c1=O [crystalline form F, reference compound]
Hygroscopicity (in words) ([5]; according to WO2020010068A1 and the inventors' experimental study, conditions not given): high hygroscopicity
